Patent publication US20110171144A1, “Functional Micelles for Hard Tissue Targeted Delivery of Chemicals” (priority 2008, published 2011)
Converted amounts (≈) assume the structure as drawn.

Tests used:
S. Mutans UA159 = assay: In vitro inhibition of S. Mutans biofilm growth on HA discs; assay type: cell-based, Streptococcus Mutans; conditions: 48 hours incubation, compared to controls, FIG. 3
Protocol: S. Mutans UA159 was used in this study. S. Mutans were stored frozen at −80° C. A fresh culture was prepared before each experiment. A single colony of S. Mutans was inoculated into 3 mL of THYE (Todd-Hewitt Yeast Extract) medium and allow to growth statically overnight at 37° C. with 5% CO2. The overnight culture was diluted to a density of 5×10^4 CFU/ml with chemically defined biofilm media (CDM) (Biswas et al. (2007) J. Bacteriol., 189:6521-6531).
Autoclaved HA discs (7 mm×1.8 mm) were incubated with different micelle solutions, a farnesol solution in ethanol, or CDM in a 24-well plate for 1 hour to achieve maximum loading. The discs were then removed from the wells and vortex washed twice with saline for 10 seconds. The discs were subsequently washed with culture media to remove unbounded micelle. For the farnesol ethanol solution group, discs were washed twice with ethanol and then washed with saline. The HA discs were then transferred to 1 mL of diluted S. Mutans, and cultured statically for 48 hours to allow biofilm growth at 37° C. with 5% CO2.
On day three post bacteria inoculation, the HA discs were dip-washed 3 times with THYE media to remove loosely attached bacteria and then placed in 1 mL of THYE media. The surfaces of HA discs were gently scraped with a sterile spatula to harvest adherent cells. […]

[1] = Hornby et al. (2001); cited from earlier work
[2] = Binding potential and rate of bone-targeting micelles on hydroxyapatite (HA)
Protocol: The solvent was evaporated in vacuum to yield a polymeric film on the wall of the flask. The thin polymeric film formed was then hydrated with a 10 mM phosphate buffered saline solution (PBS, pH 7.4) at 50° C. to set the micelles. The micelles were prepared as the method mentioned above for bone-targeting micelles: 0.9% […], 0.1% ALN-[…], 0.02% RB-[…]; for controls: 1% […], 0.02% RB-[…]). […] The mixtures were allowed to be gently agitated for 1, 5, 10, or 30 minutes at room temperature. […] The spectra of the supernatant was recorded on a UV-Visible spectrophotometer and compared with that of the initial micelle solution. Micelle containing RB-[…] but no ALN-[…] and RB were used as controls in this experiment.

CC(C)=CCCC(C)=CCCC(C)=CCO [farnesol, 3,7,11-trimethyl-2,6,10-dodecatrien-1-ol]
inhibition of S. Mutans biofilm formation on HA discs (S. Mutans UA159): did not show inhibition | water solubility [1]: 1200 µM (≈ 267 µg/mL)

CCN(CC)c1ccc2c(-c3ccccc3C(=O)O)c3ccc(=[N+](CC)CC)cc-3oc2c1.[Cl-] [RB, Rhodamine B]
binding to HA (in words) ([2]; 30 minutes incubation, FIG. 4A): slightly bound

Pluronic® 123-alendronate conjugate [ALN-P123]
bound to HA ([2]; 10 minutes incubation, FIG. 4B): 45% | bound to HA (ultimate binding equilibrium) ([2]; 30 minutes incubation): 55%
